Laboratory results as given in patent US6900200B2, “Tricyclic hydroxy carboxamides and derivatives thereof tocolytic oxytocin receptor antagonists” (Wyeth, priority 2001, dated 2005).
pIC50: −log10 of the molar value.

Key:
[1] = molecular target: T1, human vasopressin V1a receptor subtype (Homo sapiens, UniProt P37288); assay: Vasopressin binding in CHO cell membranes expressing human vasopressin V1a subtype receptors ([3H]Manning ligand radioligand binding); conditions: for inhibition at 0.1 µM: @ 100 nM; for pIC50: value printed in parentheses
T1 construct: host or cells: CHO cells; pZeoSV vector for the Thibonnier line
Description: Vasopressin Binding in Chinese Hamster Ovary Cell Membranes Expressing Human Vasopressin V1a Subtype Receptors
Chinese hamster ovary cells (CHO cells) stably transfected with the human vasopressin V1a subtype receptors were either obtained from BioSignal Inc., 1744 rue Williams, Montreal, Quebec, Canada or obtained from M. Thibonnier, Case Western Reserve University School of Medicine, Cleveland, Ohio.
A. Passaging and Amplification of Cells
CHO cells transfected with the human vasopressin V1a subtype receptors obtained from M. Thibonnier (pZeoSV vector) are allowed to grow to confluency (approx. >90%) in T-150 flasks under sterile conditions, in a cell culture medium of F-12 Nutrient Mixture (HAM) with L-glutamine (Gibco Cat. #11765-054) containing 15 mM HEPES (Gibco Cat. #15630-080), 1% antibiotic/antimycotic (add 5 mL 100×, Gibco Cat. #15240-062 per 500 mL F-12), 250 μg/mL Zeocin (add 1.25 mL of 100 mg/mL Invitrogen R-250-01 per 500 mL F-12) and 10% Fetal Bovine Serum (Qualified, heat inactivated, Gibco Cat. #16140-063). The medium is removed by aspiration and the cells are washed with 10 mL of Hank's Balanced Salt solution (Gibco Cat. #14175-095). The salt solution is removed by aspiration and the cells are trypsinized with 5 mL of trypsin-EDTA (0.05% trypsin, 0.53 mM EDTA-4Na, Gibco Cat. #25300-070) for 1 min. The trypsin is removed by aspiration and the cells dislodged by tapping. Cell Culture medium (e.g. 30 mL for 1:30 split) is immediately added and mixed well to inactivate trypsin. 1 mL of detached cells is added to new culture flasks containing fresh cell culture medium (e.g., into 25 mL per T-150 flask), and mixed gently. The cells are incubated at 37° C. in 5% CO2. The medium is changed at 3 to 4 days interval (or as appropriate). The cells grow to confluency (approx. >75%-95%) within 7-8 days. All steps are done under sterile conditions.
The cells are washed twice gently with Hank's Balanced Salt solution (e.g,. use 10 mL per T-150 flask). The excess is removed and the cells are bathed for 15-30 min. in an enzyme-free Cell Dissociation Buffer (e.g. use 8 mL Hank's Based, Gibco Cat. #13150-016 per T-150 flask) until the cells are loosened. The contents are transferred to centrifuge tubes (50 mL) kept in an ice bath. All subsequent steps are done at 4° C. The tubes are centrifuged at 300×g for 15 min (1380 rpm on SORVAL, Model RT6000D, using the rotor for 50 mL tubes). The supernatant is discarded and the cells suspended in homogenizing buffer(10 mM Tris-HCl containing 0.25 M sucrose and 1 mM EDTA, pH 7.4) ensuring that the volume of the buffer is about ten times the volume of the cell pellet. The cells are pooled into a centrifuge tube (50 mL) and homogenized with Polytron at setting 6 for 10 sec. The homogenate is transferred into a Potter-Elvjehm homogenizer and homogenized with 3 strokes. The homogenate is centrifuged at 1500×g for 10 min at 4° C. (3100 rpm using SORVAL, model RT6000D, using the rotor for 50 mL tubes). The pellet is discarded. The supernatant is centrifuged at 100,000×g for 60 min. at 4° C. (Beckman L8-80M ultracentrifuge; spin at 37,500 rpm with rotor type 70 Ti for 50 mL tubes; 38,000 rpm with type 80Ti for 15 mL tubes; or 35,800 rpm with rotor type 45Ti). The supernantant is discarded and the pellet suspended in 3 to 4 mL of Tris buffer (50 mM TRIS—HCl, pH 7.4). The protein content is estimated by the Bradford or Lowry method. The volume of the membrane suspension is adjusted with the membrane buffer (50 mM Tris-HCl containing 0.1% BSA and 0.1 mM PMSF) to give 3.0 mg/mL (or as appropriate) of protein. The membranes are aliquoted and stored at −70° C.
C. Radioligand Binding Assay […]

T1 sequence (P37288 whole entry): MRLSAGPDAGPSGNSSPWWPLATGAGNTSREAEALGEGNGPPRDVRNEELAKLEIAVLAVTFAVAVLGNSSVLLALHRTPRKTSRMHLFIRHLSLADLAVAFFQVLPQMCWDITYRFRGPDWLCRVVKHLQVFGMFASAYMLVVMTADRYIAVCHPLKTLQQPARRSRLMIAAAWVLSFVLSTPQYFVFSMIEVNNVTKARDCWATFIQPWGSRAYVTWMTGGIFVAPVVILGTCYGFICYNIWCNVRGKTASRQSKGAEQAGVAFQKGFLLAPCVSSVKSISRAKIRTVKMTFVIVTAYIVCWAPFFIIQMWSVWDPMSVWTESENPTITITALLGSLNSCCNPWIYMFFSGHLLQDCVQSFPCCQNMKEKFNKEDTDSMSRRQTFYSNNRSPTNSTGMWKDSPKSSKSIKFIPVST

inhibition at 0.1 µM [1] [%]	melting point	pIC50 [1]	Structure (SMILES)
1	130 to 132 °C		COc1cc2c(cc1OC)N(C(=O)c1ccc(-c3ccccc3C(F)(F)F)c(C)c1)Cc1ccc(C(=O)N(CCO)CCO)n1C2 [Example 19, N,N-Bis(2-Hydroxyethyl)-7,8-dimethoxy-10-{[2-methyl-2′-trifluoromethyl-[1,1′-biphenyl]-4-yl]carbonyl}-10,11-dihydro-5H-pyrrolo[2,1-c][1,4]benzodiazepine-3-carboxamide]
	119 to 123 °C	6.42	COc1cc(C(=O)N2Cc3ccc(C(=O)N(C)CC(O)CO)n3Cc3ccccc32)ccc1-c1ccccc1C(F)(F)F (centres unmarked) [Example 21, N-(2,3-Dihydroxypropyl)-10-{[2-methoxy-2′-trifluoromethyl-[1,1′-biphenyl]-4-yl]carbonyl}-N-methyl-10,11-dihydro-5H-pyrrolo[2,1-c][1,4]benzodiazepine-3-carboxamide]
	120 to 125 °C (dec.)	6.64	COc1cc(C(=O)N2Cc3ccc(C(=O)N(C)CC(O)CN(C)C)n3Cc3ccccc32)ccc1-c1ccccc1C(F)(F)F (centres unmarked) [Example 22, N-[(3-Dimethylamino)-2-hydroxy-propyl]-10-{[2-methoxy-2′-trifluoromethyl-[1,1′-biphenyl]-4-yl]carbonyl}-N-methyl-10,11-dihydro-5H-pyrrolo[2,1-c][1,4]benzodiazepine-3-carboxamide]
6	110 to 120 °C		COc1cc2c(cc1OC)N(C(=O)c1ccc(-c3ccccc3OC)c(C)c1)Cc1ccc(C(=O)N(C)C[C@H](O)[C@@H](O)[C@H](O)[C@H](O)CO)n1C2 [Example 37, 7,8-Dimethoxy-10-[(2′-methoxy-2-methyl-[1,1′-biphenyl]-4-yl)carbonyl]-10,11-dihydro-5H-pyrrolo[2,1-c][1,4]benzodiazepine-3-carboxylic acid methyl-[(2S, 3R, 4R, 5R)-2,3,4,5,6-pentahydroxy-hexyl)-amide]
